Measured values taken from PMC12595434, “Development of retinoid nuclear receptor pathway antagonists through targeting aldehyde dehydrogenase 1A3” (iScience, 2025).

Columns and labels:
[1] = target: T1, human ALDH1A3 in A375 cells (Homo sapiens, UniProt P47895); assay: Aldefluor assay in A375 cells; format: cell-based; settings: for Aldefluor activity at 100 nM (in words): A375 cells; for EC50: Aldefluor in A375 cells, read-out: EC50 cellular, human ALDH1A3
T1 construct: the cell lines with high endogenous ALDH1A3 activity: MDA-MB-468 (triple-negative breast cancer), A375 (melanoma), and LN229 (glioblastoma); endogenous in cells; host or cells: A375
T1 sequence (P47895 1-512): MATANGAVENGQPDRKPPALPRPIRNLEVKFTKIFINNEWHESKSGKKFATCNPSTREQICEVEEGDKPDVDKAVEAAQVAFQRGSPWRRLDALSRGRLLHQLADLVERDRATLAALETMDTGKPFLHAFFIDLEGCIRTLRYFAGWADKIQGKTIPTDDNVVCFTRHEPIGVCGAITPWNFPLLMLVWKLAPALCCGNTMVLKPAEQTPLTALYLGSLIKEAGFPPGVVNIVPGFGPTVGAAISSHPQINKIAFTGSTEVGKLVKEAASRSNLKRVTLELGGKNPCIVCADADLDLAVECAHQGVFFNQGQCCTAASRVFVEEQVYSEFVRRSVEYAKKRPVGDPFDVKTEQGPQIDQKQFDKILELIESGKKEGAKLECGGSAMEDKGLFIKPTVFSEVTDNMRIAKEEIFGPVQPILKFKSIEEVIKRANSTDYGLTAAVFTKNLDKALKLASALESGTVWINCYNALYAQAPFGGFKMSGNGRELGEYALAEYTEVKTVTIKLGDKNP

[2] = test system: endogenous ALDH1A3 in MDA-MB-468 cells; assay: Quantification of atRA in cells; format: cell-based, human; settings: 24 h, dose titration
MDCK-MDR2 = MDCK-MDR2 bidirectional permeability assay; format: in vitro ADME; settings: A to B
MDR2 = assay: MDCK-MDR2 bidirectional permeability assay; format: in vitro ADME; settings: dog; efflux ratio; read-out: MDCK-MDR2 (B to A/A to B)
CYP1A2 = CYP1A2 (Homo sapiens, UniProt P05177); assay: CYP inhibition; format: in vitro ADME
CYP1A2, sequence (P05177 whole entry): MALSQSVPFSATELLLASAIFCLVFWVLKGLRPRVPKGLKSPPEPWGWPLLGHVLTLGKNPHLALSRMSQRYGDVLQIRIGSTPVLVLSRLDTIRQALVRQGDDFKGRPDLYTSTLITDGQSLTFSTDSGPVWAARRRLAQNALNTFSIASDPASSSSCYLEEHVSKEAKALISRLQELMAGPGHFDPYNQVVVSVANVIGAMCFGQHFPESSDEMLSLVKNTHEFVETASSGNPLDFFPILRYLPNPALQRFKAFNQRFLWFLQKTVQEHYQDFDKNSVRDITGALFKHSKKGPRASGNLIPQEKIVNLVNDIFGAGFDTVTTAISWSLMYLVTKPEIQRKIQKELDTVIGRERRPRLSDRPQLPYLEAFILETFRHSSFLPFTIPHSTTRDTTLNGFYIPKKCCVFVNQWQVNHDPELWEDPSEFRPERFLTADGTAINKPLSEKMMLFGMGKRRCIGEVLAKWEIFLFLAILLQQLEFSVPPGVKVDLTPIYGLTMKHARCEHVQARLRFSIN

CYP2C19 = CYP2C19 (Homo sapiens, UniProt P33261); assay: CYP inhibition; format: in vitro ADME
CYP2C19, sequence (P33261 whole entry): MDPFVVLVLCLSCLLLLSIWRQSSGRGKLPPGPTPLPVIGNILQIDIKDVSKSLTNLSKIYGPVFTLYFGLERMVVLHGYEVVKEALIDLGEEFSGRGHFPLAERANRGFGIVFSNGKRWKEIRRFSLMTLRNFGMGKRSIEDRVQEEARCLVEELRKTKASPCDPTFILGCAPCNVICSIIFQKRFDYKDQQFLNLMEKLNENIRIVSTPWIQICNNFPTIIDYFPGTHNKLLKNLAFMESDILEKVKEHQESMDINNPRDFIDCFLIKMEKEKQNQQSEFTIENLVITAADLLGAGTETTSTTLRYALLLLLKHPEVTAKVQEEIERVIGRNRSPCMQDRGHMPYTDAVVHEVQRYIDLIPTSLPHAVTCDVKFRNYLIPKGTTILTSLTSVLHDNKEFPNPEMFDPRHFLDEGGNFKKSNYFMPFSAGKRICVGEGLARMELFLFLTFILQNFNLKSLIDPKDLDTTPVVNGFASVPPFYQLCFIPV

CYP3A4 = CYP3A4 (Homo sapiens, UniProt P08684); assay: CYP inhibition; format: in vitro ADME
CYP3A4, sequence (P08684 whole entry): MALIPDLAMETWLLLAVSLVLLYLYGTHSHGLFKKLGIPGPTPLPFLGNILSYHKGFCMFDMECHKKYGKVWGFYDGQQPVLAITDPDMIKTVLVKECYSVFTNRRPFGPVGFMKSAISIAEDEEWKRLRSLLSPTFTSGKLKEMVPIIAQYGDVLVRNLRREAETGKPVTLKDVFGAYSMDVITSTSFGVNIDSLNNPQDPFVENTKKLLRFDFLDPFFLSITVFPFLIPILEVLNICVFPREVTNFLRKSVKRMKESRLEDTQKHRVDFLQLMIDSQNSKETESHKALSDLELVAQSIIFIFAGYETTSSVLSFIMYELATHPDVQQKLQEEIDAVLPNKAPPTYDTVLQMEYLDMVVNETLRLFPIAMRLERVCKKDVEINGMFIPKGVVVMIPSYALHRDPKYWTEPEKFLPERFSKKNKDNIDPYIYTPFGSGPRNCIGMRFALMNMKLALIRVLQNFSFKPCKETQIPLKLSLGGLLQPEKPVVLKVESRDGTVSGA

hERG = hERG (Homo sapiens, UniProt Q12809); assay: hERG patch-clamp; format: cell-based
hERG, sequence (Q12809 whole entry): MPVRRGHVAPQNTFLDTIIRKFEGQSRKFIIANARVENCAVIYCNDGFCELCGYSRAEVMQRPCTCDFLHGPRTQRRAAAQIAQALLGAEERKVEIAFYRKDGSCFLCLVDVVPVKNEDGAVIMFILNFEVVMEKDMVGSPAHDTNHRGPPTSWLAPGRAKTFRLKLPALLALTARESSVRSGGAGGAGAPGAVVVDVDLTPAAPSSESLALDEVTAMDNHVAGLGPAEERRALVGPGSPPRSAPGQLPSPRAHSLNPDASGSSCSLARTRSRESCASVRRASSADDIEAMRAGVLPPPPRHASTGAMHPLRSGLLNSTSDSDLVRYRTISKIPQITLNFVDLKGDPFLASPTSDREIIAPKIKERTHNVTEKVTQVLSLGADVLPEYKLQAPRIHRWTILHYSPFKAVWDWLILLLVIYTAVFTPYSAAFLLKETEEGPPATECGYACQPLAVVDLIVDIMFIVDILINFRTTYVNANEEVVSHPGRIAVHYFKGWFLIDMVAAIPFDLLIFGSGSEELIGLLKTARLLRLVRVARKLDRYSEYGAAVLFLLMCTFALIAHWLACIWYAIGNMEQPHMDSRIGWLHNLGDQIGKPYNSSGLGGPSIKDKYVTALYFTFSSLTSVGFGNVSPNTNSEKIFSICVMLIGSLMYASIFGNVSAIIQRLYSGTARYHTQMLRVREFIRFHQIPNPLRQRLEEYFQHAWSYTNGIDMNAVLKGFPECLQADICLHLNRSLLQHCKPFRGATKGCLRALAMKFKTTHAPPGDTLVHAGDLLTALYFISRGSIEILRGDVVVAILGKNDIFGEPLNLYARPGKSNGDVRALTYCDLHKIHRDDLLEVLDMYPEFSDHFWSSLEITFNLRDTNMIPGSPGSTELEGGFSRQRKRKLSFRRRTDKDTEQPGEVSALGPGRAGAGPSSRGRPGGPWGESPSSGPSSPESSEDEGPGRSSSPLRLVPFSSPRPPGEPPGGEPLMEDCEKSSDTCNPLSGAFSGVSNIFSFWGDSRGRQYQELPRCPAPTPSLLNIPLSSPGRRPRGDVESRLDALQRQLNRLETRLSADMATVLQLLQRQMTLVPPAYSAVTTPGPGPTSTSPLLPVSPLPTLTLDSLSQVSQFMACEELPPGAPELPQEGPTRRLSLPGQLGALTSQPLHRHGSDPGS

D1 = D1 (Homo sapiens, UniProt P21728); assay: Off-target profiling panel; format: binding; settings: read-out: Inhibition by MBE1 at 10 μM (%)
D1, sequence (P21728 whole entry): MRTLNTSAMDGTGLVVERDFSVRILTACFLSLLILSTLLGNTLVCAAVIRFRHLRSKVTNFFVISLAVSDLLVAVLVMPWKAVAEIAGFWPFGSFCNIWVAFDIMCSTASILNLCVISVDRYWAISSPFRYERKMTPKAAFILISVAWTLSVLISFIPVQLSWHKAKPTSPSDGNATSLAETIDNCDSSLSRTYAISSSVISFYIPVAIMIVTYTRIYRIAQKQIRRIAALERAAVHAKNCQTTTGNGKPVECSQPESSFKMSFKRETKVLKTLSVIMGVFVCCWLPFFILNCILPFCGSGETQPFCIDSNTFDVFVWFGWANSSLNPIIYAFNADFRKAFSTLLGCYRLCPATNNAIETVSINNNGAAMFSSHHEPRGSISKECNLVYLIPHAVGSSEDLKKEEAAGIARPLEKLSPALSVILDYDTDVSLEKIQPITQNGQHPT

ALDH1A3 = target: T2, ALDH1A3 (Homo sapiens, UniProt P47895); assay: Microscale thermophoresis (MST) binding; set-up: made in house; host or cells: BL21-DE3 E. coli; settings: biophysical assay (Table 1)
T2 sequence (P47895 1-512): T1 sequence (P47895 1-512)

T3-MCA sarcoma = assay: T3-MCA syngeneic tumor growth; format: in vivo, mouse; settings: MBE1.5-formulated diet 270 ppm (equivalent 40 mg/kg per day), by day 7 of treatment
Description: A considerable number of research efforts have attempted to generate retinoid nuclear receptor pathway antagonists, whether through targeting retinoid transport, the atRA synthetic enzymes, or by creating inverse agonists of the RAR/RXR nuclear receptors. […] Thus, mice were injected subcutaneously with T3-MCA sarcoma cells and were randomized by tumor size once tumors became palpable. One group received MBE1.5-formulated diet at 270 ppm (equivalent dose of 40 mg/kg body mass per day based on average food consumption), and the other group received control diet.
No statistical method was used to predetermine the number of animals needed across experiments. Xenograft experiments were conducted using 50k cells suspended in 10 μL PBS for mammary gland injection or 100k cells in 100 μL PBS for subcutaneous injection. Bioluminescent imaging (BLI) and tumor measurement was conducted as previously described.[78] IV/PO pharmacokinetic analysis of MBE1 and MBE1.5 was conducted on male CD-1 mice from Vital River that had been fasted for 4 h. Sampling was performed from either jugular puncture or tail-vein sampling using BD yellow-capped tubes for serum analysis or K2-EDTA tubes for hematology. Medicated feed was manufactured at Envigo using MBE1.5 powder with a final concentration of 270 ppm. Medicated diet was stored at 4°C for no longer than 6 months at a time.

Compound | Aldefluor activity at 100 nM (in words) [1] | EC50 [1] [nM] | reduction of atRA formation (in words) [2] | MDCK-MDR2 permeability A to B (MDCK-MDR2) | efflux ratio (MDR2) | inhibition at 10 µM (CYP1A2) [%] | inhibition at 10 µM (CYP2C19) [%] | inhibition at 10 µM (CYP3A4) [%] | IC50 (hERG) [nM] | inhibition at 10 µM (D1) [%] | Kd (ALDH1A3) [nM] | tumor growth (in words) (T3-MCA sarcoma)
CCc1cnccc1C(=O)Nc1cc2c(cc1F)NC(=O)CC2 [MBE1, 3-ethyl-N-(7-fluoro-2-oxo-3,4-dihydro-1H-quinolin-6-yl)pyridine-4-carboxamide] | highest activity | 5.1 | potently reduced atRA formation | high | 2.42 | 8.8 | 15.8 | 42 | 26600 | -16.4 | 71.7 | –
CCc1ccccc1C(=O)Nc1cc2c(cc1F)NC(=O)CC2 [MBE1.5, 2-ethyl-N-(7-fluoro-2-oxo-3,4-dihydro-1H-quinolin-6-yl)benzamide] | highest activity | 1.9 | potently reduced atRA formation | high | 0.6 | 11.6 | 0 | 6.3 | > 30000 | – | 42.1 | dramatically reduced tumor growth
